The compounds below were run on Escherichia coli strain ATCC25922 (assay: standard microdilution assay to determine minimum inhibitory concentrations (MICs)). Details: Escherichia coli strain ATCC25922, microdilution.
Format: cell-based
Protocol: The in vitro activity of the compounds of the present invention can be determined. Antimicrobial testing is typically performed to determine the minimum inhibitory concentration (MIC). Minimum inhibitory concentrations (MICs) are determined by the microdilution method in a final volume of 100 μl according to protocols outlined by The Clinical and Laboratory Standards Institute (CLSI). Performance standards for reference strains are assessed within the same experimental design to maintain quality control. See, for example, Clinical Laboratory Standards Institute: Methods for dilution antimicrobial susceptibility tests for bacteria that grow aerobically M7-A8. Approved Standard-Eighth Edition. Wayne, Pa.: CLSI; December 2008; and Clinical Laboratory Standards Institute: Performance Standards for Antimicrobial Susceptibility Testing M100-S20; Approved Standard-Twentieth Edition. Wayne, Pa.: CLSI; June 2010.
The compounds of the present invention were tested for antimicrobial activity. […] The compounds were run against Escherichia coli strain ATCC25922 using a standard microdilution assay to determine minimum inhibitory concentrations (MICs). […] A “N/A” means that data is unavailable. It will be recognized by one skilled in the art that the compounds can be assessed against other bacterial organisms and that the presentation of data for activity against Escherichia coli is illustrative and in no way is intended to limit the scope of the present invention. The compounds of the present invention can be assayed against a range of other microorganisms depending upon the performance activity desired to be gathered. Furthermore, the “+”, “−”, and “N/A” representation and the selection of a cutoff value of 16 micrograms/ml is also illustrative and in no way is intended to limit the scope of the present invention.

Compound	E. coli ATCC25922 MIC
CC(N)CCCc1cc(-c2cc3cn(-c4ccc(C(C)NCCCNC(=N)N)cc4)c(=O)nc3[nH]2)c(F)c(Cl)c1F (stereo not drawn) [Compound 493]	+ (a “+” indicates that the compound has an MIC value of 16 micrograms/ml or less)
N=C(N)NCCCNCc1ccc(-n2cc3cc(-c4cc(CCCCN)cc(-n5ccnc5)c4)[nH]c3nc2=O)cc1 [Compound 59]	+ (a “+” indicates that the compound has an MIC value of 16 micrograms/ml or less)
N=C(N)NCCCNCc1ccc(-n2cc3cc(-c4cc(CCCCN)ccc4F)[nH]c3nc2=O)cc1F [Compound 54]	+ (a “+” indicates that the compound has an MIC value of 16 micrograms/ml or less)
COCCNC[C@@H]1C[C@@H](NC(=O)Nc2nc(=O)c(-c3ccc(CNCCCNC(=N)N)cc3)c[nH]2)CN1C[C@@H](C)CN [Compound 152]	+ (a “+” indicates that the compound has an MIC value of 16 micrograms/ml or less)
N=C(N)NCCCNCc1ccc(-n2cc3cc(-c4cccc(CCCCN)c4F)[nH]c3nc2=O)cc1 [Compound 5]	+ (a “+” indicates that the compound has an MIC value of 16 micrograms/ml or less)
C[C@H](N)CCCc1cc(CC(F)(F)F)cc(-c2cc3cn(-c4ccc(CNCCCNC(=N)N)cc4)c(=O)nc3[nH]2)c1 [Compound 306]	+ (a “+” indicates that the compound has an MIC value of 16 micrograms/ml or less)
N=C(N)NCCCNCc1ccc(-c2c[nH]c(NC(=O)Nc3ccc(C4CC4)cc3OCCCN)nc2=O)cc1 [Compound 184]	+ (a “+” indicates that the compound has an MIC value of 16 micrograms/ml or less)
N=C(N)NCCCNCc1ccc(-n2cc3cc(-c4cc(CCC(O)CN)cc(Cl)c4F)[nH]c3nc2=O)cc1 (stereo not drawn) [Compound 254]	+ (a “+” indicates that the compound has an MIC value of 16 micrograms/ml or less)
CC(C)(N)CCCc1cc(OC(F)(F)F)cc(-c2cc3cn(-c4ccc(CNCCCNC(=N)N)cc4)c(=O)nc3[nH]2)c1 [Compound 131]	+ (a “+” indicates that the compound has an MIC value of 16 micrograms/ml or less)
CC(C)(CNCc1ccc(-n2cc3cc(-c4cc(CCCCN)cc(OC(F)(F)F)c4)[nH]c3nc2=O)cc1)CNC(=N)N [Compound 31]	+ (a “+” indicates that the compound has an MIC value of 16 micrograms/ml or less)
CCc1cc(CCCC(C)NC(=N)N)cc(-c2cc3cn(-c4ccc(CNCCCNC(=N)N)cc4)c(=O)nc3[nH]2)c1Cl (stereo not drawn) [Compound 284]	+ (a “+” indicates that the compound has an MIC value of 16 micrograms/ml or less)
CC(CN)Cc1cc(-c2cc3cn(-c4ccc(CNCCCNC(=N)N)cc4)c(=O)nc3[nH]2)c(F)c(C(F)(F)F)c1 (stereo not drawn) [Compound 280]	+ (a “+” indicates that the compound has an MIC value of 16 micrograms/ml or less)
N=C(N)NCCCNCc1ccc(-n2cc3cc(-c4cc(CCCN)cc(Cl)c4Cl)[nH]c3nc2=O)cc1 [Compound 224]	+ (a “+” indicates that the compound has an MIC value of 16 micrograms/ml or less)
C[C@H](N)CCCc1cc(SC(F)F)cc(-c2cc3cn(-c4ccc([C@H](C)NCCCNC(=N)N)cc4)c(=O)nc3[nH]2)c1 [Compound 308]	+ (a “+” indicates that the compound has an MIC value of 16 micrograms/ml or less)
N=C(N)NCCCNCc1ccc(-n2cc3cc(-c4cc(OC(F)(F)F)cc(C(F)CCCN)c4)[nH]c3nc2=O)cc1 (stereo not drawn) [Compound 58]	+ (a “+” indicates that the compound has an MIC value of 16 micrograms/ml or less)
CCOc1cc(CCCCN)cc(-c2cc3cn(-c4ccc(CNCCCNC(=N)N)cc4)c(=O)nc3[nH]2)c1C(F)(F)F [Compound 229]	+ (a “+” indicates that the compound has an MIC value of 16 micrograms/ml or less)
N=C(N)NCCCNCc1ccc(-n2cc3cc(-c4cc(CCCCN)ccc4OC(F)(F)F)[nH]c3nc2=O)cc1 [Compound 50]	+ (a “+” indicates that the compound has an MIC value of 16 micrograms/ml or less)
CC(CCCc1cc(-c2cc3cn(-c4ccc(C(C)NCCCNC(=N)N)cc4)c(=O)nc3[nH]2)cc(C(F)(F)F)c1)NC(=N)N (stereo not drawn) [Compound 276]	+ (a “+” indicates that the compound has an MIC value of 16 micrograms/ml or less)
CC(C)c1cc(CCC(C)(C)CN)cc(-c2cc3cn(-c4ccc(CNCCCNC(=N)N)cc4)c(=O)nc3[nH]2)c1 [Compound 97]	+ (a “+” indicates that the compound has an MIC value of 16 micrograms/ml or less)
CC(C)(N)CCCc1cc(Cl)c(F)c(-c2cc3cn(-c4ccc(CNCCCNC(=N)N)cc4)c(=O)nc3[nH]2)c1 [Compound 295]	+ (a “+” indicates that the compound has an MIC value of 16 micrograms/ml or less)
N=C(N)NCCCNCc1ccc(-n2cc3cc(-c4cc(COCCN)ccc4F)[nH]c3nc2=O)cc1 [Compound 24]	+ (a “+” indicates that the compound has an MIC value of 16 micrograms/ml or less)

Same assay, conditions: Escherichia coli strain ATCC25922, standard microdilution assay

Compound	E. coli ATCC25922 MIC
C[C@H](N)CCCc1cc(-c2cc3cn(-c4ccc([C@H](C)NCCCNC(=N)N)cc4)c(=O)nc3[nH]2)c(F)c(C2CCOC2)c1 (stereo partly drawn) [Compound 466]	+ (a “+” indicates that the compound has an MIC value of 16 micrograms/ml or less)
C[C@H](N)CCCc1cc(C(F)(F)F)cc(-c2cc3cn(-c4ccc(CNCCCNC(=N)N)cc4)c(=O)nc3[nH]2)n1 [Compound 389]	+ (a “+” indicates that the compound has an MIC value of 16 micrograms/ml or less)
C[C@H](N)CCCc1cc2c(c(-c3cc4cn(-c5ccc([C@H](C)NCCCNC(=N)N)cc5)c(=O)nc4[nH]3)c1)COC2 [Compound 441]	+ (a “+” indicates that the compound has an MIC value of 16 micrograms/ml or less)
C[C@H](N)CCCc1cc(-c2cc3cn(-c4ccc(CN(C)CCCNC(=N)N)cc4)c(=O)nc3[nH]2)cc(C(F)(F)F)c1 [Compound 339]	+ (a “+” indicates that the compound has an MIC value of 16 micrograms/ml or less)
CC(N)CCCc1cc(Cl)c(F)c(-c2cc3cn(-c4ccc(CN(C)CCCNC(=N)N)cc4)c(=O)nc3[nH]2)c1 (stereo not drawn) [Compound 379]	+ (a “+” indicates that the compound has an MIC value of 16 micrograms/ml or less)
CC(N)COCc1cc(SC(F)(F)F)cc(-c2cc3cn(-c4ccc(C(C)NCCCNC(=N)N)cc4)c(=O)nc3[nH]2)c1 (stereo not drawn) [Compound 345]	+ (a “+” indicates that the compound has an MIC value of 16 micrograms/ml or less)
C[C@H](N)CCCc1cc(OC(F)(F)F)cc(-c2cc3cn(-c4ccc(CN)cc4)c(=O)nc3[nH]2)c1 [Compound 355]	− (a “−” indicates that the compound has an MIC value greater than 16 micrograms/ml)
CC(=O)NCCCNCc1ccc(-n2cc3cc(-c4cc(CCC[C@H](C)N)cc(Cl)c4F)[nH]c3nc2=O)cc1 [Compound 386]	− (a “−” indicates that the compound has an MIC value greater than 16 micrograms/ml)
CN(CCCNC(=N)N)Cc1ccc(-n2cc3cc(-c4cc(CCCCN)cc(Cl)c4F)[nH]c3nc2=O)cc1 [Compound 378]	+ (a “+” indicates that the compound has an MIC value of 16 micrograms/ml or less)
